Data from patent US20250205195A1, “BENZYLOXY-BENZYLAMINYL AMINO ACID DERIVATIVE FOR ADJUSTING TSLP/TSLPR SIGNAL TRANSMISSION” (AMTIXBIO CO., LTD., priority 2021, published 2025).

Tested on: HDM-induced atopic dermatitis mice
Experiment: HDM (Df cream) atopic dermatitis mouse model, skin-specific memory T cell study
Format: in vivo, Nc/Nga mice
Text: Nc/Nga mice (purchased from Central Laboratory Animal, male, 6 weeks old) were used, with 2 mice per group. The experimental animals were allowed to freely access to food and water. Mice were shaved using clippers and depilatory cream before the application of Df cream. Df cream (dermatophagoides farina cream) (Biostir AD, Biostir Incorporation) was applied to the dorsal area of the mice 3 times a week for 4 weeks to induce atopic dermatitis. After confirming lesions induced in all mice, compound 27 of the present invention was applied topically to the skin three times a week for three weeks starting four weeks after the Df cream treatment. In contrast to other examples, this example excluded the simultaneous application of the test drug (compound 27 of the present invention) and the atopic dermatitis-inducing agent during the induction period. The compound of the present invention (8 g/mL and […]) was applied to the skin in a volume of 100 μL. As a positive control, 0.1% dexamethasone was topically applied to the mouse skin for comparison.
Erythema, hemorrhage, wounds, dryness, swelling, and shedding in mice were observed visually and compared using the SCORAD score. […] FIG. 12 graphically represents the changes in the atopic dermatitis mouse model's skin scores due to the treatment with each test substance (Wilcoxon-signed rank test; P<0.05 with statistically significant three mice were examined from each group).
A mouse IgE ELISA Kit (BioLegend, San Diego, CA, USA) and a mouse DF-specific IgE ELISA Kit (BioLegend, San Diego, CA, USA) were used according to the manufacturer's instructions to measure IgE in mouse serum and mouse DF-specific IgE. Changes in the levels of total IgE and DF-specific IgE in the serum were presented in FIGS. 13 (a) and (b), respectively.
Skin tissue changes were examined using Hematoxylin and Eosin (H&E) staining (refer to FIG. 14) (Data are shown as mean±standard deviation (SD). ** P<0.01, * P<0.05). Additionally, changes in eosinophils and mouse epidermal thickness were measured (see FIG. 14).
The results of the analysis of T cell fractions in the skin of atopic dermatitis mouse models treated with compound 27 of the present invention are presented in FIGS. 16 and 17 (data are shown as mean±standard deviation (SD). ** P<0.01, * P<0.05).

Question: Which results are given for `CCC(NC)C(=O)NCc1ccc(OCc2ccc(C(F)(F)F)cc2)cc1` (racemic) [Compound 27, (R)/(S)-2-(methylamino)-N-(4-((4-trifluoromethyl)benzyl)oxy)benzyl)butanamide]?
Answer: proportion of skin-specific T cells (CD3+, CD4+, CD69+, CD103+) (FACS of mouse skin, 16 g/mL, 8 g/mL): concentration-dependent significant decrease; numbers of CD69+ T cells and CD103+ T cells (FACS of mouse skin, vs 0.1% dexamethasone): statistically significant decrease; eosinophil count in skin tissue (H&E staining, topical): concentration-dependent decrease; epidermal thickness (H&E staining, with increasing drug concentration): appeared to thin; atopic dermatitis symptoms (skin scores, FIG. 12) ([…], 8 g/mL topical): improved atopic dermatitis symptoms in a concentration-dependent manner; erythema, hemorrhage, dryness, wounds, swelling and shedding (visual, SCORAD) (topical, three times a week for three weeks, compound vs 0.1% dexamethasone positive control): significant reduction
